ChEMBL document CHEMBL3808371, “Design, synthesis and biological evaluation of diaziridinyl quinone isoxazole hybrids” (Eur J Med Chem, 2016)
In brackets after ≈: the same amount, converted by molar mass.

Legend:
[1] = system: [Candida] aaseri; experiment: Fungicidal activity against Candida aaseri MTCC 1962 after 24 hrs by serial dilution method; format: functional; settings: Yamadazyma aaseri, MTCC 1962, 24 h
[2] = system: Pichia sporocuriosa; experiment: Fungicidal activity against Issatchenkia hanoiensis MTCC 4755 after 24 hrs by serial dilution method; format: functional; settings: MTCC 4755, 24 h
[3] = system: Candida albicans; experiment: Fungicidal activity against Candida albicans MTCC 7315 after 24 hrs by serial dilution method; format: functional; settings: MTCC 7315, 24 h
[4] = system: Candida albicans; experiment: Antimicrobial activity against Candida albicans MTCC 3017 after 24 hrs by well diffusion method; format: functional; settings: MTCC 3017, 24 h
[5] = system: Candida albicans; experiment: Fungicidal activity against Candida albicans MTCC 183 after 24 hrs by serial dilution method; format: functional; settings: MTCC 183, 24 h
[6] = system: Staphylococcus aureus; experiment: Bactericidal activity against Staphylococcus aureus MTCC 96 after 24 hrs by serial dilution method; format: functional; settings: MTCC 96, 24 h
[7] = system: Candida albicans; experiment: Antimicrobial activity against Candida albicans MTCC 854 after 24 hrs by well diffusion method; format: functional; settings: MTCC 854, 24 h
[8] = system: Candida albicans; experiment: Antimicrobial activity against Candida albicans MTCC 183 after 24 hrs by well diffusion method; format: functional; settings: MTCC 183, 24 h
[9] = system: Staphylococcus aureus; experiment: Antimicrobial activity against Staphylococcus aureus MLS16 MTCC 2940 after 24 hrs by well diffusion method; format: functional; settings: MLS16 MTCC 2940, 24 h
[10] = system: Escherichia coli; experiment: Antimicrobial activity against Escherichia coli MTCC 739 after 24 hrs by well diffusion method; format: functional; settings: MTCC 739, 24 h
[11] = system: Micrococcus luteus; experiment: Bactericidal activity against Micrococcus luteus MTCC 2470 after 24 hrs by serial dilution method; format: functional; settings: MTCC 2470, 24 h
[12] = system: Staphylococcus aureus; experiment: Bactericidal activity against Staphylococcus aureus MLS16 MTCC 2940 after 24 hrs by serial dilution method; format: functional; settings: MLS16 MTCC 2940, 24 h
[13] = system: Staphylococcus aureus; experiment: Antibiofilm activity against Staphylococcus aureus MTCC 96 after 24 hrs by crystal violet staining based assay; format: functional, organism-based; settings: MTCC 96, 24 h
[14] = system: Bacillus subtilis; experiment: Bactericidal activity against Bacillus subtilis MTCC 121 after 24 hrs by serial dilution method; format: functional; settings: MTCC 121, 24 h
[15] = system: Raoultella planticola; experiment: Antimicrobial activity against Klebsiella planticola MTCC 530 after 24 hrs by well diffusion method; format: functional; settings: MTCC 530, 24 h
[16] = system: Bacillus subtilis; experiment: Antimicrobial activity against Bacillus subtilis MTCC 121 after 24 hrs by well diffusion method; format: functional; settings: MTCC 121, 24 h
[17] = system: Staphylococcus aureus; experiment: Antibiofilm activity against Staphylococcus aureus MLS16 MTCC 2940 after 24 hrs by crystal violet staining based assay; format: functional, organism-based; settings: MLS16 MTCC 2940, 24 h
[18] = system: Candida parapsilosis; experiment: Fungicidal activity against Candida parapsilosis MTCC 1744 after 24 hrs by serial dilution method; format: functional; settings: Lodderomyces parapsilosis, MTCC 1744, 24 h
[19] = system: Candida albicans; experiment: Antimicrobial activity against Candida albicans MTCC 4748 after 24 hrs by well diffusion method; format: functional; settings: MTCC 4748, 24 h
[20] = system: Raoultella planticola; experiment: Antibiofilm activity against Klebsiella planticola MTCC 530 after 24 hrs by crystal violet staining based assay; format: functional, organism-based; settings: MTCC 530, 24 h
[21] = system: Candida albicans; experiment: Antimicrobial activity against Candida albicans MTCC 3958 after 24 hrs by well diffusion method; format: functional; settings: MTCC 3958, 24 h
[22] = system: Candida parapsilosis; experiment: Antimicrobial activity against Candida parapsilosis MTCC 1744 after 24 hrs by well diffusion method; format: functional; settings: Lodderomyces parapsilosis, MTCC 1744, 24 h
[23] = system: Micrococcus luteus; experiment: Antibiofilm activity against Micrococcus luteus MTCC 2470 after 24 hrs by crystal violet staining based assay; format: functional, organism-based; settings: MTCC 2470, 24 h
[24] = system: [Candida] aaseri; experiment: Antimicrobial activity against Candida aaseri MTCC 1962 after 24 hrs by well diffusion method; format: functional; settings: Yamadazyma aaseri, MTCC 1962, 24 h
[25] = system: Pichia kudriavzevii; experiment: Fungicidal activity against Candida krusei MTCC 3020 after 24 hrs by serial dilution method; format: functional; settings: MTCC 3020, 24 h
[26] = system: Candida albicans; experiment: Fungicidal activity against Candida albicans MTCC 227 after 24 hrs by serial dilution method; format: functional; settings: MTCC 227, 24 h
[27] = system: Micrococcus luteus; experiment: Antimicrobial activity against Micrococcus luteus MTCC 2470 after 24 hrs by well diffusion method; format: functional; settings: MTCC 2470, 24 h
[28] = system: Pseudomonas aeruginosa; experiment: Antimicrobial activity against Pseudomonas aeruginosa MTCC 2453 after 24 hrs by well diffusion method; format: functional; settings: MTCC 2453, 24 h
[29] = system: Candida albicans; experiment: Fungicidal activity against Candida albicans MTCC 854 after 24 hrs by serial dilution method; format: functional; settings: MTCC 854, 24 h
[30] = system: Nakaseomyces glabratus; experiment: Antimicrobial activity against Candida glabrata MTCC 3019 after 24 hrs by well diffusion method; format: functional; settings: MTCC 3019, 24 h
[31] = system: Candida albicans; experiment: Antimicrobial activity against Candida albicans MTCC 3018 after 24 hrs by well diffusion method; format: functional; settings: MTCC 3018, 24 h
[32] = system: Bacillus subtilis; experiment: Antibiofilm activity against Bacillus subtilis MTCC 121 after 24 hrs by crystal violet staining based assay; format: functional, organism-based; settings: MTCC 121, 24 h
[33] = system: Staphylococcus aureus; experiment: Antimicrobial activity against Staphylococcus aureus MTCC 96 after 24 hrs by well diffusion method; format: functional; settings: MTCC 96, 24 h
[34] = system: Pichia sporocuriosa; experiment: Antimicrobial activity against Issatchenkia hanoiensis MTCC 4755 after 24 hrs by well diffusion method; format: functional; settings: MTCC 4755, 24 h
[35] = system: Candida albicans; experiment: Fungicidal activity against Candida albicans MTCC 3018 after 24 hrs by serial dilution method; format: functional; settings: MTCC 3018, 24 h
[36] = system: Candida albicans; experiment: Fungicidal activity against Candida albicans MTCC 3958 after 24 hrs by serial dilution method; format: functional; settings: MTCC 3958, 24 h
[37] = system: Pichia kudriavzevii; experiment: Antimicrobial activity against Candida krusei MTCC 3020 after 24 hrs by well diffusion method; format: functional; settings: MTCC 3020, 24 h
[38] = system: Raoultella planticola; experiment: Bactericidal activity against Klebsiella planticola MTCC 530 after 24 hrs by serial dilution method; format: functional; settings: MTCC 530, 24 h
[39] = system: Nakaseomyces glabratus; experiment: Fungicidal activity against Candida glabrata MTCC 3019 after 24 hrs by serial dilution method; format: functional; settings: MTCC 3019, 24 h
[40] = system: Candida albicans; experiment: Fungicidal activity against Candida albicans MTCC 4748 after 24 hrs by serial dilution method; format: functional; settings: MTCC 4748, 24 h
[41] = system: Candida albicans; experiment: Fungicidal activity against Candida albicans MTCC 1637 after 24 hrs by serial dilution method; format: functional; settings: MTCC 1637, 24 h
[42] = system: Candida albicans; experiment: Antimicrobial activity against Candida albicans MTCC 227 after 24 hrs by well diffusion method; format: functional; settings: MTCC 227, 24 h
[43] = system: Candida albicans; experiment: Antimicrobial activity against Candida albicans MTCC 1637 after 24 hrs by well diffusion method; format: functional; settings: MTCC 1637, 24 h
[44] = system: A549; experiment: Cytotoxicity against human A549 cells after 72 hrs by XTT assay; format: functional, cell-based; settings: A549, 72 h
[45] = system: Candida albicans; experiment: Fungicidal activity against Candida albicans MTCC 3017 after 24 hrs by serial dilution method; format: functional; settings: MTCC 3017, 24 h
[46] = system: Candida albicans; experiment: Antimicrobial activity against Candida albicans MTCC 7315 after 24 hrs by well diffusion method; format: functional; settings: MTCC 7315, 24 h
[47] = Cytotoxicity against human PC3 cells after 72 hrs by XTT assay; format: functional, cell-based; settings: PC-3, 72 h

O=C1C=C(N2CC2)C(=O)C(c2cc(-c3ccc(C(=O)N4CCOCC4)s3)on2)=C1N1CC1
MFC [1]: 125 µg/mL (≈ 276 µM)
MFC [2]: 31.2 µg/mL (≈ 69 µM)
MFC [3]: 125 µg/mL (≈ 276 µM)
MIC [4]: 7.8 µg/mL (≈ 17.2 µM)
MFC [5]: 31.2 µg/mL (≈ 69 µM)
MBC [6]: 7.8 µg/mL (≈ 17.2 µM)
MIC [7]: 7.8 µg/mL (≈ 17.2 µM)
MIC [8]: 15.6 µg/mL (≈ 34.5 µM)
MIC [9]: 3.9 µg/mL (≈ 8.62 µM)
MIC [10]: > 125 µg/mL
MBC [11]: 31.2 µg/mL (≈ 69 µM)
MBC [12]: 3.9 µg/mL (≈ 8.62 µM)
IC50 [13]: 2500 nM
MBC [14]: 3.9 µg/mL (≈ 8.62 µM)
MIC [15]: 7.8 µg/mL (≈ 17.2 µM)
MIC [16]: 3.9 µg/mL (≈ 8.62 µM)
IC50 [17]: 1900 nM
MFC [18]: 62.5 µg/mL (≈ 138 µM)
MIC [19]: 31.2 µg/mL (≈ 69 µM)
IC50 [20]: 5100 nM
MIC [21]: 15.6 µg/mL (≈ 34.5 µM)
MIC [22]: 15.6 µg/mL (≈ 34.5 µM)
IC50 [23]: 9800 nM
MIC [24]: 31.2 µg/mL (≈ 69 µM)
MFC [25]: 15.6 µg/mL (≈ 34.5 µM)
MFC [26]: 31.2 µg/mL (≈ 69 µM)
MIC [27]: 15.6 µg/mL (≈ 34.5 µM)
MIC [28]: > 125 µg/mL
MFC [29]: 15.6 µg/mL (≈ 34.5 µM)
MIC [30]: 31.2 µg/mL (≈ 69 µM)
MIC [31]: 62.5 µg/mL (≈ 138 µM)
IC50 [32]: 2800 nM
MIC [33]: 3.9 µg/mL (≈ 8.62 µM)
MIC [34]: 15.6 µg/mL (≈ 34.5 µM)
MFC [35]: 125 µg/mL (≈ 276 µM)
MFC [36]: 62.5 µg/mL (≈ 138 µM)
MIC [37]: 7.8 µg/mL (≈ 17.2 µM)
MBC [38]: 15.6 µg/mL (≈ 34.5 µM)
MFC [39]: 125 µg/mL (≈ 276 µM)
MFC [40]: 125 µg/mL (≈ 276 µM)
MFC [41]: 62.5 µg/mL (≈ 138 µM)
MIC [42]: 7.8 µg/mL (≈ 17.2 µM)
MIC [43]: 31.2 µg/mL (≈ 69 µM)
IC50 [44]: 1500 nM
MFC [45]: 15.6 µg/mL (≈ 34.5 µM)
MIC [46]: 62.5 µg/mL (≈ 138 µM)
IC50 [47]: 1400 nM

CCCN(C)C(=O)c1ccc(-c2cc(C3=C(N4CC4)C(=O)C=C(N4CC4)C3=O)no2)s1
MFC [1]: 15.6 µg/mL (≈ 35.6 µM)
MFC [2]: 62.5 µg/mL (≈ 143 µM)
MFC [3]: 31.2 µg/mL (≈ 71.2 µM)
MIC [4]: 7.8 µg/mL (≈ 17.8 µM)
MFC [5]: 62.5 µg/mL (≈ 143 µM)
MBC [6]: 15.6 µg/mL (≈ 35.6 µM)
MIC [7]: 62.5 µg/mL (≈ 143 µM)
MIC [8]: 31.2 µg/mL (≈ 71.2 µM)
MIC [9]: 15.6 µg/mL (≈ 35.6 µM)
MIC [10]: > 125 µg/mL
MBC [11]: 31.2 µg/mL (≈ 71.2 µM)
MBC [12]: 31.2 µg/mL (≈ 71.2 µM)
IC50 [13]: 4600 nM
MBC [14]: 7.8 µg/mL (≈ 17.8 µM)
MIC [15]: 7.8 µg/mL (≈ 17.8 µM)
MIC [16]: 3.9 µg/mL (≈ 8.89 µM)
IC50 [17]: 10600 nM
MFC [18]: 31.2 µg/mL (≈ 71.2 µM)
MIC [19]: 31.2 µg/mL (≈ 71.2 µM)
IC50 [20]: 3500 nM
MIC [21]: 62.5 µg/mL (≈ 143 µM)
MIC [22]: 15.6 µg/mL (≈ 35.6 µM)
IC50 [23]: 8900 nM
MIC [24]: 7.8 µg/mL (≈ 17.8 µM)
MFC [25]: 31.2 µg/mL (≈ 71.2 µM)
MFC [26]: 125 µg/mL (≈ 285 µM)
MIC [27]: 15.6 µg/mL (≈ 35.6 µM)
MIC [28]: > 125 µg/mL
MFC [29]: 125 µg/mL (≈ 285 µM)
MIC [30]: 15.6 µg/mL (≈ 35.6 µM)
MIC [31]: 31.2 µg/mL (≈ 71.2 µM)
IC50 [32]: 2200 nM
MIC [33]: 7.8 µg/mL (≈ 17.8 µM)
MIC [34]: 15.6 µg/mL (≈ 35.6 µM)
MFC [35]: 125 µg/mL (≈ 285 µM)
MFC [36]: 125 µg/mL (≈ 285 µM)
MIC [37]: 15.6 µg/mL (≈ 35.6 µM)
MBC [38]: 15.6 µg/mL (≈ 35.6 µM)
MFC [39]: 31.2 µg/mL (≈ 71.2 µM)
MFC [40]: 62.5 µg/mL (≈ 143 µM)
MFC [41]: 125 µg/mL (≈ 285 µM)
MIC [42]: 62.5 µg/mL (≈ 143 µM)
MIC [43]: 62.5 µg/mL (≈ 143 µM)
IC50 [44]: 2700 nM
MFC [45]: 31.2 µg/mL (≈ 71.2 µM)
MIC [46]: 15.6 µg/mL (≈ 35.6 µM)
IC50 [47]: 600 nM
